Source: patent publication US7462600B2, “Macrolides” (Pfizer Inc, priority 2004, dated 2008)
In brackets after ≈: the same amount, converted by molar mass.

Assays:
Assay type in all cases: cell-based
[1] = tested on: Streptococcus pyogenes 1079; experiment: MIC, microtiter broth dilution (NCCLS M100-S14), S. pyogenes 1079 (ermB); conditions: Streptococcus pyogenes 1079
Outline: (§1)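 Steps: dissolve compound in DMSO to 40 mg/ml stock; dilute in broth across microtiter trays; inoculate strains; record MIC per NCCLS M100-S14.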

[2] = tested on: Streptococcus pneumoniae 1095; conditions: Streptococcus pneumoniae 1095; microtiter broth dilution
Outline: as §1

[3] = tested on: Streptococcus pneumoniae 1175; conditions: Streptococcus pneumoniae 1175; microtiter broth dilution
Outline: as §1

[4] = tested on: Streptococcus pneumoniae 1016; experiment: MIC, microtiter broth dilution (NCCLS M100-S14), S. pneumoniae 1016 (susceptible); conditions: Streptococcus pneumoniae 1016
Outline: as §1

[5] = tested on: Haemophilus influenzae 1218; experiment: MIC, microtiter broth dilution (NCCLS M100-S14), H. influenzae 1218 (susceptible); conditions: Haemophilus influenzae 1218
Outline: as §1

## CCC1OC(=O)C(C)C(=O)C(C)C(OC2OC(C)CC(N(C)C)C2O)C(C)(OC)CC(C)C(=O)C(C)C2N(C3CN(S(=O)(=O)c4ccc5c(c4)CS(=O)(=O)C5)C3)C(=O)OC12C (stereo not shown) [Example 3.95]
[1]
  MIC S. pyogenes 1079: 0.12 µg/mL (≈ 0.134 µM)
[2]
  MIC S. pneumo. 1095: <0.06 µg/mL
[3]
  MIC S. pneumo. 1175: <0.06 µg/mL
[4]
  MIC S. pneumo. 1016: <0.06 µg/mL
[5]
  MIC H. influenzae 1218: 0.5 µg/mL (≈ 0.557 µM)

## CCC1OC(=O)C(C)C(=O)C(C)C(OC2OC(C)CC(N(C)C)C2O)C(C)(OC)CC(C)C(=O)C(C)C2N(C3CN(S(=O)(=O)c4ccc5nn(C)cc5c4)C3)C(=O)OC12C (stereo not shown) [Example 3.96, 3-descladinosyl-11,12-dideoxy-6-O-methyl-3-oxo-12,11-(oxycarbonyl-(1-(2-methyl-2H-indazole-5-sulfonyl)-azetidin-3-yl)-imino)erythromycin A]
[1]
  MIC S. pyogenes 1079: 1 µg/mL (≈ 1.16 µM)
[2]
  MIC S. pneumo. 1095: 0.12 µg/mL (≈ 0.139 µM)
[3]
  MIC S. pneumo. 1175: 2 µg/mL (≈ 2.32 µM)
[4]
  MIC S. pneumo. 1016: <0.06 µg/mL
[5]
  MIC H. influenzae 1218: 1 µg/mL (≈ 1.16 µM)

## CCC1OC(=O)C(C)(F)C(=O)C(C)C(OC2OC(C)CC(N(C)C)C2O)C(C)(OC)CC(C)C(=O)C(C)C2N(C3CN(S(=O)(=O)c4cccc5nccnc45)C3)C(=O)OC12C (stereo not shown) [Example 3.98, 3-descladinosyl-11,12-dideoxy-2-fluoro-6-O-methyl-3-oxo-12,11-(oxycarbonyl-(1-(quinoxaline-5-sulfonyl)-azetidin-3-yl)-imino)-erythromycin A]
[1]
  MIC S. pyogenes 1079: 0.25 µg/mL (≈ 0.285 µM)
[2]
  MIC S. pneumo. 1095: <0.063 µg/mL
[3]
  MIC S. pneumo. 1175: <0.063 µg/mL
[4]
  MIC S. pneumo. 1016: <0.063 µg/mL
[5]
  MIC H. influenzae 1218: 0.25 µg/mL (≈ 0.285 µM)

## CCOc1ccc(S(=O)(=O)N2CC(N3C(=O)OC4(C)C(CC)OC(=O)C(C)C(=O)C(C)C(OC5OC(C)CC(N(C)C)C5O)C(C)(OC)CC(C)C(=O)C(C)C34)C2)cc1C#N (stereo not shown) [Example 3.99, 3-descladinosyl-11,12-dideoxy-6-O-methyl-3-oxo-12,11-(oxycarbonyl-(1-(3-cyano-4-ethoxybenzene-1-sulfonyl)-azetidin-3-yl)-imino)-erythromycin A]
[1]
  MIC S. pyogenes 1079: 0.25 µg/mL (≈ 0.285 µM)
[2]
  MIC S. pneumo. 1095: <0.063 µg/mL
[3]
  MIC S. pneumo. 1175: <0.063 µg/mL
[4]
  MIC S. pneumo. 1016: <0.063 µg/mL
[5]
  MIC H. influenzae 1218: 1.41 µg/mL (≈ 1.61 µM)

## CCC1OC(=O)C(C)C(=O)C(C)C(OC2OC(C)CC(N(C)C)C2O)C(C)(OC)CC(C)C(=O)C(C)C2N(C3CN(S(=O)(=O)c4cccc5ncccc45)C3)C(=O)OC12C (stereo not shown) [Example 3.100, 3-descladinosyl-11,12-dideoxy-6-O-methyl-3-oxo-12,11-(oxycarbonyl-(1-(quinoline-5-sulfonyl)-azetidin-3-yl)-imino)-erythromycin A]
[1]
  MIC S. pyogenes 1079: 0.125 µg/mL (≈ 0.146 µM)
[2]
  MIC S. pneumo. 1095: <0.063 µg/mL
[3]
  MIC S. pneumo. 1175: <0.063 µg/mL
[4]
  MIC S. pneumo. 1016: <0.063 µg/mL
[5]
  MIC H. influenzae 1218: 0.5 µg/mL (≈ 0.582 µM)

## CCC1OC(=O)C(C)C(=O)C(C)C(OC2OC(C)CC(N(C)C)C2O)C(C)(OC)CC(C)C(=O)C(C)C2N(C3CN(S(=O)(=O)c4ccc(OC)c5ncccc45)C3)C(=O)OC12C (stereo not shown) [Example 3.101, 3-descladinosyl-11,12-dideoxy-6-O-methyl-3-oxo-12,11-(oxycarbonyl-(1-(8-methoxyquinoline-5-sulfonyl)-azetidin-3-yl)-imino)-erythromycin A]
[1]
  MIC S. pyogenes 1079: <0.063 µg/mL
[2]
  MIC S. pneumo. 1095: <0.063 µg/mL
[3]
  MIC S. pneumo. 1175: <0.063 µg/mL
[4]
  MIC S. pneumo. 1016: <0.063 µg/mL
[5]
  MIC H. influenzae 1218: 0.125 µg/mL (≈ 0.141 µM)

## CCOc1ccc(S(=O)(=O)N2CC(N3C(=O)OC4(C)C(CC)OC(=O)C(C)C(=O)C(C)C(OC5OC(C)CC(N(C)C)C5O)C(C)(OC)CC(C)C(=O)C(C)C34)C2)c2cccnc12 (stereo not shown) [Example 3.102, 3-descladinosyl-11,12-dideoxy-6-O-methyl-3-oxo-12,11-(oxycarbonyl-(1-(8-ethoxyquinoline-5-sulfonyl)-azetidin-3-yl)-imino)erythromycin A]
[1]
  MIC S. pyogenes 1079: <0.063 µg/mL
[2]
  MIC S. pneumo. 1095: <0.063 µg/mL
[3]
  MIC S. pneumo. 1175: <0.063 µg/mL
[4]
  MIC S. pneumo. 1016: <0.063 µg/mL
[5]
  MIC H. influenzae 1218: 1 µg/mL (≈ 1.11 µM)

## CCOc1ccc(S(=O)(=O)N2CC(N3C(=O)OC4(C)C(CC)OC(=O)C(C)(F)C(=O)C(C)C(OC5OC(C)CC(N(C)C)C5O)C(C)(OC)CC(C)C(=O)C(C)C34)C2)cc1C#N (stereo not shown) [Example 3.103, 3-descladinosyl-11,12-dideoxy-2-fluoro-6-O-methyl-3-oxo-12,11-(oxycarbonyl-(1-(3-cyano-4-ethoxybenzene-1-sulfonyl)-azetidin-3-yl)-imino)-erythromycin A]
[1]
  MIC S. pyogenes 1079: 0.5 µg/mL (≈ 0.559 µM)
[2]
  MIC S. pneumo. 1095: <0.063 µg/mL
[3]
  MIC S. pneumo. 1175: <0.063 µg/mL
[4]
  MIC S. pneumo. 1016: <0.063 µg/mL
[5]
  MIC H. influenzae 1218: 2 µg/mL (≈ 2.23 µM)

## CCC1OC(=O)C(C)C(=O)C(C)C(OC2OC(C)CC(N(C)C)C2O)C(C)(OC)CC(C)C(=O)C(C)C2N(C3CN(S(=O)(=O)c4ccc5cnsc5c4)C3)C(=O)OC12C (stereo not shown) [Example 3.104, 3-descladinosyl-11,12-dideoxy-6-O-methyl-3-oxo-12,11-(oxycarbonyl-(1-(benzo[d]isothiazole-6-sulfonyl)-azetidin-3-yl)-imino)-erythromycin A]
[1]
  MIC S. pyogenes 1079: 1 µg/mL (≈ 1.16 µM)
[2]
  MIC S. pneumo. 1095: <0.063 µg/mL
[3]
  MIC S. pneumo. 1175: <0.063 µg/mL
[4]
  MIC S. pneumo. 1016: <0.063 µg/mL
[5]
  MIC H. influenzae 1218: <0.063 µg/mL

## CCOc1ccc(S(=O)(=O)N2CC(N3C(=O)OC4(C)C(CC)OC(=O)C(C)C(=O)C(C)C(OC5OC(C)CC(N(C)C)C5O)C(C)(OC)CC(C)C(=O)C(C)C34)C2)cc1OC (stereo not shown) [Example 3.105, 3-descladinosyl-11,12-dideoxy-6-O-methyl-3-oxo-12,11-(oxycarbonyl-(1-(4-ethoxy-3-methoxybenzene-1-sulfonyl)-azetidin-3-yl)-imino)-erythromycin A]
[1]
  MIC S. pyogenes 1079: 1 µg/mL (≈ 1.13 µM)
[2]
  MIC S. pneumo. 1095: <0.063 µg/mL
[3]
  MIC S. pneumo. 1175: <0.063 µg/mL
[4]
  MIC S. pneumo. 1016: <0.063 µg/mL
[5]
  MIC H. influenzae 1218: 0.25 µg/mL (≈ 0.283 µM)

## CCC1OC(=O)C(C)C(=O)C(C)C(OC2OC(C)CC(N(C)C)C2O)C(C)(OC)CC(C)C(=O)C(C)C2N(C3CN(S(=O)(=O)c4cc(Cl)ccc4OC)C3)C(=O)OC12C (stereo not shown) [Example 3.106, 3-descladinosyl-11,12-dideoxy-6-O-methyl-3-oxo-12,11-(oxycarbonyl-(1-(5-chloro-2-methoxybenzene-1-sulfonyl)-azetidin-3-yl)-imino)-erythromycin A]
[1]
  MIC S. pyogenes 1079: 0.5 µg/mL (≈ 0.573 µM)
[2]
  MIC S. pneumo. 1095: <0.063 µg/mL
[3]
  MIC S. pneumo. 1175: <0.063 µg/mL
[4]
  MIC S. pneumo. 1016: <0.063 µg/mL
[5]
  MIC H. influenzae 1218: 0.5 µg/mL (≈ 0.573 µM)

## CCC1OC(=O)C(C)C(=O)C(C)C(OC2OC(C)CC(N(C)C)C2O)C(C)(OC)CC(C)C(=O)C(C)C2N(C3CN(S(=O)(=O)c4cccc(Cl)c4)C3)C(=O)OC12C (stereo not shown) [Example 3.107, 3-descladinosyl-11,12-dideoxy-6-O-methyl-3-oxo-12,11-(oxycarbonyl-(1-(3-chlorobenzene-1-sulfonyl)-azetidin-3-yl)-imino)-erythromycin A]
[1]
  MIC S. pyogenes 1079: 1 µg/mL (≈ 1.19 µM)
[2]
  MIC S. pneumo. 1095: <0.063 µg/mL
[3]
  MIC S. pneumo. 1175: <0.063 µg/mL
[4]
  MIC S. pneumo. 1016: <0.063 µg/mL
[5]
  MIC H. influenzae 1218: 025 µg/mL (≈ 29.7 µM)

## CCC1OC(=O)C(C)C(=O)C(C)C(OC2OC(C)CC(N(C)C)C2O)C(C)(OC)CC(C)C(=O)C(C)C2N(C3CN(S(=O)(=O)c4ccc(NC(C)=O)cc4)C3)C(=O)OC12C (stereo not shown) [Example 3.108, 3-descladinosyl-11,12-dideoxy-6-O-methyl-3-oxo-12,11-(oxycarbonyl-(1-(4-acetamidobenzene-1-sulfonyl)-azetidin-3-yl)-imino)-erythromycin A]
[1]
  MIC S. pyogenes 1079: 0.25 µg/mL (≈ 0.289 µM)
[2]
  MIC S. pneumo. 1095: <0.063 µg/mL
[3]
  MIC S. pneumo. 1175: 0.5 µg/mL (≈ 0.578 µM)
[4]
  MIC S. pneumo. 1016: <0.063 µg/mL
[5]
  MIC H. influenzae 1218: 1 µg/mL (≈ 1.16 µM)

## CCC1OC(=O)C(C)C(=O)C(C)C(OC2OC(C)CC(N(C)C)C2O)C(C)(OC)CC(C)C(=O)C(C)C2N(C3CN(S(=O)(=O)c4ccc(OC)c(OCC#N)c4)C3)C(=O)OC12C (stereo not shown) [Example 3.109, 3-descladinosyl-11,12-dideoxy-6-O-methyl-3-oxo-12,11-(oxycarbonyl-(1-(3-(cyanomethoxy)-4-methoxybenzene-1-sulfonyl)-azetidin-3-yl)-imino)-erythromycin A]
[1]
  MIC S. pyogenes 1079: 0.125 µg/mL (≈ 0.14 µM)
[2]
  MIC S. pneumo. 1095: <0.063 µg/mL
[3]
  MIC S. pneumo. 1175: <0.063 µg/mL
[4]
  MIC S. pneumo. 1016: <0.063 µg/mL
[5]
  MIC H. influenzae 1218: <0.063 µg/mL
